What was measured:
[1] = target: T1, Tryptophan 2,3-dioxygenase (Homo sapiens, UniProt P48775); assay: Inhibition of TDO2 in human SW48 cells assessed as decrease in conversion of tryptophan to N-formylkynurenine after 30 mins by fluorescence assay; format: cell-based
[2] = target: T1, Tryptophan 2,3-dioxygenase; assay: Inhibition of recombinant human TDO2 assessed as decrease in conversion of L-tryptophan to N-formylkynurenine preincubated for 5 mins followed by 0.2 mM substrate addition measured after 15 mins by RapidFire mass spectrometry based fluorescence assay
SW48 = assay: Cytotoxicity against human SW48 cells assessed as reduction in cell viability up to 25 uM by Cell Titer-Glo based luminescence assay
A 172 = assay: Cytotoxicity against human A172 cells assessed as reduction in cell viability up to 25 uM by Cell Titer-Glo based luminescence assay
[3] = Metabolic stability in rat whole blood assessed as parent compound remaining at 0.5 mM after 2 hrs by LC-MS/MS analysis; format: ADME, tissue-based; conditions: read-out: Stability
[4] = Metabolic stability in dog whole blood assessed as parent compound remaining at 0.5 mM after 2 hrs by LC-MS/MS analysis; format: ADME, tissue-based, Canis lupus familiaris; conditions: read-out: Stability
[5] = Metabolic stability in human whole blood assessed as parent compound remaining at 0.5 mM after 2 hrs by LC-MS/MS analysis; format: ADME, tissue-based; conditions: read-out: Stability
[6] = target: T1, Tryptophan 2,3-dioxygenase; assay: Competitive inhibition of recombinant human TDO2 assessed as decrease in conversion of L-tryptophan to N-formylkynurenine preincubated for 5 mins followed by 1 mM substrate addition measured after 15 mins by RapidFire mass spectrometry based fluorescence assay
Cytochrome P450 3A4 = Cytochrome P450 3A4 (Homo sapiens, UniProt P08684); assay: Inhibition of CYP3A4 (unknown origin); format: ADME
Chain of Cytochrome P450 3A4 (P08684 whole entry): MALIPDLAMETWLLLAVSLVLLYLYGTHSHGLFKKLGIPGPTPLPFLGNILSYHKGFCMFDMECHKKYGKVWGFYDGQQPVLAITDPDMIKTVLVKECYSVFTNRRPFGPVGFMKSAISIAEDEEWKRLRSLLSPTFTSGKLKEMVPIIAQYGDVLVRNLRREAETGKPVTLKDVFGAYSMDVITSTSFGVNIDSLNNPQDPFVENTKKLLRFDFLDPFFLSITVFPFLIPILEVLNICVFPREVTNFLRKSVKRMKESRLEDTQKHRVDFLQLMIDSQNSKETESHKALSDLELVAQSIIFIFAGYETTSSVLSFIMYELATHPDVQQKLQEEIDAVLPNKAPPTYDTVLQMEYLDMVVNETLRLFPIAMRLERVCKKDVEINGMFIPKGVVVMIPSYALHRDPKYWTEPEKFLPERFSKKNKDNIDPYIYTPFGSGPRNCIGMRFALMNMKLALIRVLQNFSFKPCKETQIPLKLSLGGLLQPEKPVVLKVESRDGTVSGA

Cytochrome P450 1A2 = target: T2, Cytochrome P450 1A2 (Homo sapiens, UniProt P05177); assay: Inhibition of CYP1A2 (unknown origin); format: ADME
T2 sequence (P05177 whole entry): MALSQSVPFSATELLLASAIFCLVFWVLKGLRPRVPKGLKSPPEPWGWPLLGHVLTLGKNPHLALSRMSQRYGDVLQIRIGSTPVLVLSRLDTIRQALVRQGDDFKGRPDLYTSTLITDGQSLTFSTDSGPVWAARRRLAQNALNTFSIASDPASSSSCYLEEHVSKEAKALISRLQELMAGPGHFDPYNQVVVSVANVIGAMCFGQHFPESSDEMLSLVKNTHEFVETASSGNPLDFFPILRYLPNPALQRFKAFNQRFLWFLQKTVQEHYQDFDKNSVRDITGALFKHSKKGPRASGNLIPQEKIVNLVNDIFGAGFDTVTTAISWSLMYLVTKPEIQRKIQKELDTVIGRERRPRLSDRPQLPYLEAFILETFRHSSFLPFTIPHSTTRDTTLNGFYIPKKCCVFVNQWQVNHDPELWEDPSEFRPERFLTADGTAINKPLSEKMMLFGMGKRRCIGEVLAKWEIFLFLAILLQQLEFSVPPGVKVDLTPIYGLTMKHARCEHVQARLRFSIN

Cytochrome P450 2D6 = Cytochrome P450 2D6 (Homo sapiens, UniProt P10635); assay: Inhibition of CYP2D6 (unknown origin); format: ADME
Chain of Cytochrome P450 2D6 (P10635 whole entry): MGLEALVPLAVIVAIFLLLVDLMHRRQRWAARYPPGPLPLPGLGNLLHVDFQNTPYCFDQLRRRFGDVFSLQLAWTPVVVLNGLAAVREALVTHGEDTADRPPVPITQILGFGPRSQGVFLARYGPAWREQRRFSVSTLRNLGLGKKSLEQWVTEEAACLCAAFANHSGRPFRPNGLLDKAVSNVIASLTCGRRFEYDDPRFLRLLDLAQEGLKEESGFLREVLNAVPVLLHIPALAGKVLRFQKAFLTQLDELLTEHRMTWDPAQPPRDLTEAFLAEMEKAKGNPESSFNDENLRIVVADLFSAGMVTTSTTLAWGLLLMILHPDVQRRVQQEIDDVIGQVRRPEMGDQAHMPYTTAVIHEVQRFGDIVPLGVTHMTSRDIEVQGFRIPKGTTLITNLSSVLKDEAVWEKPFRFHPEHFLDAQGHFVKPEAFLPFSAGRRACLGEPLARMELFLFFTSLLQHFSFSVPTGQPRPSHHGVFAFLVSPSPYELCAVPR

Cytochrome P450 2C9 = Cytochrome P450 2C9 (Homo sapiens, UniProt P11712); assay: Inhibition of CYP2C9 (unknown origin); format: ADME
Chain of Cytochrome P450 2C9 (P11712 whole entry): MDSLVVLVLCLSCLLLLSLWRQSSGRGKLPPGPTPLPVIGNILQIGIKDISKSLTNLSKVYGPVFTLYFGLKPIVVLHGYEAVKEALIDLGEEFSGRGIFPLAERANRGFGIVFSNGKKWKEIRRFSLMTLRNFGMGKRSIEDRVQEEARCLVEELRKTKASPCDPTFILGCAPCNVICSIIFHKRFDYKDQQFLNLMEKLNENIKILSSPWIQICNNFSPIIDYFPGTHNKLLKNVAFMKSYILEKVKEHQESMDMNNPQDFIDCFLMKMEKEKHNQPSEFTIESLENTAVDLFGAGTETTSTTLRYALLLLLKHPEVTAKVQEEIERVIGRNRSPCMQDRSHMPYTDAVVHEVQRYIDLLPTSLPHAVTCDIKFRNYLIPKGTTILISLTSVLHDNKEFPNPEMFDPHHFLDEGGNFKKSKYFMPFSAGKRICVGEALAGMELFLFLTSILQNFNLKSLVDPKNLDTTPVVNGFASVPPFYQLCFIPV

Cytochrome P450 2C19 = Cytochrome P450 2C19 (Homo sapiens, UniProt P33261); assay: Inhibition of CYP2C19 (unknown origin); format: ADME
Chain of Cytochrome P450 2C19 (P33261 whole entry): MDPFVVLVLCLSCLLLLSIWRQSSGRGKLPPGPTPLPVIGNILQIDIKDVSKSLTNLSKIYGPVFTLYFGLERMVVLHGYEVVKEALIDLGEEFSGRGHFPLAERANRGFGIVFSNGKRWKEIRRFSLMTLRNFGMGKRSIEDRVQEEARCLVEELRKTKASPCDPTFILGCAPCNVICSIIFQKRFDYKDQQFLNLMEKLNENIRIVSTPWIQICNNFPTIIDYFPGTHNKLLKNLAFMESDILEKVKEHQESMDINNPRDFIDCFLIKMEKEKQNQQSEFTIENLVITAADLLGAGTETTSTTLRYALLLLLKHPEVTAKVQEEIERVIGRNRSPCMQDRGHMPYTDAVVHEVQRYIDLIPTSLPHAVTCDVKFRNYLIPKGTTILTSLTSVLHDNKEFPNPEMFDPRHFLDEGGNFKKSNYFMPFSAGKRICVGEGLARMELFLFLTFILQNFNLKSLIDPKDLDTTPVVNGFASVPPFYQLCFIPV

[7] = Metabolic stability in rat whole blood assessed as parent compound remaining at 0.5 mM after 30 mins by LC-MS/MS analysis; format: ADME, tissue-based; conditions: read-out: Stability
[8] = Metabolic stability in dog whole blood assessed as parent compound remaining at 0.5 mM after 30 mins by LC-MS/MS analysis; format: ADME, tissue-based, Canis lupus familiaris; conditions: read-out: Stability

T1 sequence (P48775 whole entry): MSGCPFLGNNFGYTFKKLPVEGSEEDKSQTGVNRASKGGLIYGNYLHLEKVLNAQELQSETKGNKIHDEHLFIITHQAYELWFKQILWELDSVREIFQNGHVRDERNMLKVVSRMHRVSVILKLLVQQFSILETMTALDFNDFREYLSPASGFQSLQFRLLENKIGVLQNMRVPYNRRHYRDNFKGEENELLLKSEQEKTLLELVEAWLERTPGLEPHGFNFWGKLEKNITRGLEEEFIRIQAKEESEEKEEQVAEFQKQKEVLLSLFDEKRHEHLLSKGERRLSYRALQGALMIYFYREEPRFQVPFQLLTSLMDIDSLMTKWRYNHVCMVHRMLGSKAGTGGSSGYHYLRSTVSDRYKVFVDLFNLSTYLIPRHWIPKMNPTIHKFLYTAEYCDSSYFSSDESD

Row | EC50 [1] | IC50 [2] | Compound | Activity (SW48) | Activity (A 172) | other results
1 | > 25 µM | > 25 µM | Nc1[nH]ncc1-c1ccccc1 | Non-Toxic | Non-Toxic | –
2 | 9.7 µM | – | Cc1noc(N)c1-c1ccccc1 | Non-Toxic | Non-Toxic | remaining at 2 h, 500 µM [3]: 50%; remaining at 2 h, 500 µM [4]: 65%; remaining at 2 h, 500 µM [5]: 84%
3 | 1.5 µM | 7.8 µM | Nc1oncc1C1CCCCC1 | Non-Toxic | Non-Toxic | –
4 | > 25 µM | > 25 µM | Nc1cnsc1-c1ccccc1 | Non-Toxic | Non-Toxic | –
5 | 0.95 µM | 0.83 µM | Nc1oncc1-c1ccc(Cl)cc1 | Non-Toxic | Non-Toxic | IC50 [6]: 4.21 µM
6 | > 25 µM | > 25 µM | NC(=O)c1oncc1-c1ccccc1 | Non-Toxic | Non-Toxic | –
7 | > 25 µM | > 25 µM | Nc1cnoc1-c1ccccc1 | Non-Toxic | Non-Toxic | –
8 | 1.5 µM | 3.1 µM | COc1cccc(-c2cnoc2N)c1 | Non-Toxic | Non-Toxic | –
9 | 0.67 µM | 0.19 µM | CNc1oncc1-c1ccccc1 | Non-Toxic | Non-Toxic | remaining at 2 h, 500 µM [3]: 0.1%; remaining at 2 h, 500 µM [4]: 0.1%; remaining at 2 h, 500 µM [5]: 0.3%
10 | > 25 µM | > 25 µM | Nc1snnc1-c1ccccc1 | Non-Toxic | Non-Toxic | –
11 | 18 µM | 4.4 µM | OCc1oncc1-c1ccccc1 | Non-Toxic | Non-Toxic | –
12 | 0.82 µM | 1.7 µM | Nc1oncc1-c1ccccn1 | Non-Toxic | Non-Toxic | –
13 | 0.81 µM | 0.029 µM | Nc1oncc1-c1cccs1 | Non-Toxic | Non-Toxic | –
14 | 0.085 µM | 0.14 µM | Nc1oncc1-c1ccccc1 | Non-Toxic | Non-Toxic | IC50 (Cytochrome P450 3A4): > 10 µM; IC50 (Cytochrome P450 1A2): > 10 µM; IC50 (Cytochrome P450 2D6): > 10 µM; IC50 (Cytochrome P450 2C9): > 10 µM; IC50 (Cytochrome P450 2C19): > 10 µM; remaining at 2 h, 500 µM [3]: 0%; remaining at 2 h, 500 µM [4]: 0%; remaining at 2 h, 500 µM [5]: 0%
15 | 0.077 µM | 0.34 µM | Nc1oncc1-n1cc(F)cn1 | Non-Toxic | Non-Toxic | IC50 (Cytochrome P450 3A4): > 10 µM; IC50 (Cytochrome P450 1A2): > 10 µM; IC50 (Cytochrome P450 2D6): > 10 µM; IC50 (Cytochrome P450 2C9): > 10 µM; IC50 (Cytochrome P450 2C19): > 10 µM; remaining at 2 h, 500 µM [5]: 91%
16 | 0.36 µM | 0.64 µM | Nc1oncc1C1CCCC1 | Non-Toxic | Non-Toxic | –
17 | > 25 µM | > 25 µM | Nc1cnnn1-c1ccccc1 | Non-Toxic | Non-Toxic | –
18 | > 25 µM | > 25 µM | CNC(=O)c1oncc1-c1ccccc1 | Non-Toxic | Non-Toxic | –
19 | > 25 µM | > 25 µM | Nc1nncn1-c1ccccc1 | Non-Toxic | Non-Toxic | –
20 | 0.23 µM | 0.29 µM | Nc1oncc1-n1cccn1 | Non-Toxic | Non-Toxic | IC50 (Cytochrome P450 3A4): > 10 µM; IC50 (Cytochrome P450 1A2): > 10 µM; IC50 (Cytochrome P450 2D6): > 10 µM; IC50 (Cytochrome P450 2C9): > 10 µM; IC50 (Cytochrome P450 2C19): > 10 µM
21 | > 25 µM | > 25 µM | Cn1ncc(-c2ccccc2)c1N | Non-Toxic | Non-Toxic | –
22 | 0.25 µM | 0.5 µM | Nc1oncc1-c1cccc(Cl)c1 | Non-Toxic | Non-Toxic | IC50 [6]: 2.94 µM
23 | 0.21 µM | 0.58 µM | Nc1oncc1-c1ccc(F)cc1 | Non-Toxic | Non-Toxic | –
24 | > 25 µM | 18 µM | Nc1sncc1-c1ccccc1 | Non-Toxic | Non-Toxic | –
25 | > 25 µM | > 25 µM | c1ccc(-c2cnoc2)cc1 | Non-Toxic | Non-Toxic | –
26 | 0.099 µM | 0.028 µM | Nc1oncc1-c1ccsc1 | Non-Toxic | Non-Toxic | IC50 (Cytochrome P450 3A4): > 10 µM; IC50 (Cytochrome P450 1A2): > 10 µM; IC50 (Cytochrome P450 2D6): > 10 µM; IC50 (Cytochrome P450 2C9): > 10 µM; IC50 (Cytochrome P450 2C19): > 10 µM; remaining at 0.5 h, 500 µM [7]: 3%; remaining at 0.5 h, 500 µM [8]: 3%
27 | > 25 µM | 0.27 µM | Nc1nnsc1-c1ccccc1 | Non-Toxic | Non-Toxic | –
28 | 0.81 µM | 1.6 µM | Cc1ccn(-c2cnoc2N)n1 | Non-Toxic | Non-Toxic | –
29 | 1.4 µM | 2.3 µM | Nc1oncc1-c1cccnc1 | Non-Toxic | Non-Toxic | –
30 | 0.34 µM | 1.6 µM | Cc1cnn(-c2cnoc2N)c1 | Non-Toxic | Non-Toxic | –

— ChEMBL document CHEMBL4145589, “Aminoisoxazoles as Potent Inhibitors of Tryptophan 2,3-Dioxygenase 2 (TDO2)” (ACS Med Chem Lett, 2018)
